In US20240207265A1, “TREATMENT OF CNS DISEASES WITH sGC STIMULATORS” (Tisento Therapeutics Inc., priority 2021, published 2024):

Tests used:
[1] = Non-human primate CSF pharmacokinetics (Study A); assay type: in vivo, Cynomolgus monkeys; conditions: female, cynomolgus monkey, NHP CSF (cisterna magna)/unbound plasma, sodium salt
Method: PK in NHP was determined following oral dosing (PO). A group of 4 female Cynomolgus monkeys were used for studying each compound. Compound I-20 sodium salt was formulated as a 0.06 mg/mL solution in MilliQ water. Compound I-14 sodium salt was formulated as 0.2 mg/mL solution in MilliQ water. Formulations were shipped frozen on dry ice and then thawed and mixed thoroughly prior to dosing. PO doses of 1 mg/kg for Compound I-14 and 0.3 mg/kg for Compound I-20 were administered by oral gavage.
Plasma and CSF samples were collected as follows: samples of CSF were collected at 3 and 24 hours post PO dosing. CSF samples (0.125 mL) were collected at the cisterna magna via direct needle puncture by direct dilution. Blood samples (0.8 mL) were collected from a peripheral vein at 0, 0.25, 0.5, 1, 2, 3, 6, 8, […], 24, 32 and 48 or 72 hours. These samples were kept on ice until processed for plasma. Blood samples were protein precipitated using acetonitrile. Plasma was directly transferred to individual tubes (0.125 mL) and K2EDTA was used as the anticoagulant. Plug caps were placed on the tubes and the tubes frozen at approximately −70° C. and stored until analysis. Plasma and CSF was collected and analyzed for the presence of compound.
Plasma and CSF samples were analyzed using liquid chromatography (LC) with tandem mass spectrometric detection (MS/MS) using positive electrospray ionization. The standard curve range was from 0.1 to 1000 ng/mL.
The geometrical means for the values obtained for the 4 animals in each compound's study was obtained for concentrations in CSF and in Plasma, respectively.
Kp,uu is defined as the concentration ratio of unbound drug in CSF to unbound drug in plasma. Unbound drug in plasma (or free plasma concentration) is calculated by multiplying the total plasma concentration by the unbound fraction as determined by plasma protein binding. The CSF concentration is then divided by the free plasma concentration to determine the Kp,uu. (See e.g., Di et al., J. Med. Chem., 56, 2-12 (2013))

[2] = tested on: sleep-stage specific pharmaco-EEG; experiment: Sleep-wake pharmaco-EEG in telemeter-implanted rats; assay type: in vivo, rat
Text: Young adult male Sprague-Dawley (SD) rats (˜275-325 grams on arrival) from Envigo (Indianapolis, IN) were used in the study. Upon receipt, rats were assigned unique identification numbers and housed with 3 rats per cage in polycarbonate cages with micro-isolator filter tops. All rats were examined and weighed prior to initiation of the study to assure adequate health and suitability. During the course of the study, 12/12 light/dark cycles were maintained. The room temperature was maintained between […] and 23° C. with a relative humidity maintained around 50%. Chow and water were provided ad libitum for the duration of the study. Following surgery, rats were single housed. After a period of recovery (7-10 days), animals were transferred to an EEG recording room and placed over a DSI receiver for recordings.
• a. Vehicle A • i. Route: PO • ii. Volume: 10 ml/kg • iii. Formulation: Water • b. Compound I-14 at 3 mg/kg • i. Route: PO • ii. Volume: 10 ml/kg • iii. Formulation: 3 mg/kg in water • c. Compound I-14 at 10 mg/kg • i. Route: PO • ii. Volume: 10 ml/kg • iii. Formulation: 10 mg/kg in water • d. Compound I-14 at 30 mg/kg • i. Route: PO • ii. Volume: 10 ml/kg • iii. Formulation: 30 mg/kg in water
Briefly, animals were implanted with DSI Telemetry devices (F50-EET) in a 3 channel (lead pairs) configuration. Note the positive and negative lead placements for each location. Each of the EEG channels on the DSI transmitter functions as a differential input whereby the differential input measures the difference between the positive and negative leads. Frontal/Parietal (right): (+) 2 mm Anterior, 2 mm Lateral; (−) 4 mm Posterior, 2 mm Lateral; Frontal/Frontal (bihemispheric): (+) 2 mm Anterior, 2 mm Lateral (right); (−) 2 mm Anterior, 2 mm Lateral (left); and neck EMG.
This study followed a Monday and Thursday dosing/recording schedule, where Baseline EEG was recorded 2 hours and then rats received first dose of Compound I-14 at 0.3, 3 or 10 mg/kg or Vehicle A (all orally) between 7:50-8:00 AM and a second dose of the same after about 12 hours, and EEG continued 12 hours afterwards. • EEG Recordings began at 6 AM (at time lights turn on) • Dosing occurred at 7:50 am AM (1 hour 50 minutes after lights ON) • 2nd dosing (same compound) occurred at 7:50 PM (1 hour and 50 minutes after lights OFF) • EEG Recordings continued until 7:50 AM the following day (24 hours after 1st dose and 12 hours after 2nd dose).
Animals were tested in a cross-over design with at least 72-hour washout period between doses. On each testing day, animals received compound or vehicle orally just under 2 hours (7:50 AM) after lights on (6:00 AM). Data were recorded from 2 hours prior to dosing and recorded continuously for 24 hours post dose.
Raw EEG recordings were manually scored using Neuroscore software (Data Sciences International) to identify sleep stages: Active Wake, Quiet Wake, NREM and REM. Using NeuroScore (DSI), artifacts were removed offline from the data and sleep stages assigned manually for every 10 s epoch using EEG, EMG and Locomotor activity (LMA) by conventional methods as previously described (Ivarsson et al., 2005; Parmentier-Batteur et al., 2012; Leiser et al., 2014, 2015) using the fronto-parietal EEG, LMA and EMG: active wake (less regular, low-amplitude EEG with high EMG and LMA activity); quiet wake (less regular, low-amplitude EEG, with low EMG and no LMA activity); NREM (consisting of high-amplitude irregular waves with predominant delta (1-4 Hz), low EMG and no LMA); REM sleep (stable, low-amplitude waves dominated by theta (4-8 Hz) with near absent EMG and no LMA).
The sleep stage data were exported from a Neuroscore report template of sleep state time per each 15 min (2 hours pre-dose to 4 hours post-dose). The onset of the first sleep and first REM were also reported directly from a Neuroscore report template. […]

| SMILES | Kp uu at 3 h ([1]; PO 1 mg/kg) | Kp uu at 24 h ([1]; PO 1 mg/kg) | EEG spectral power in QW ([2]; 3 mg/kg PO) | EEG spectral power in QW ([2]; 30 mg/kg PO) | EEG spectral power in NREM ([2]; 30 mg/kg PO, ˜0-300 minutes post dose) | REM and NREM in hypnograms vs vehicle (A) group ([2]; high dose (30 mg/kg) PO) | onset of NREM, REM and REM latency ([2]; high dose (30 mg/kg) PO) | Quiet Wake in hypnograms ([2]; highest dose (30 mg/kg) PO) | Kp uu at 3 h ([1]; PO 0.3 mg/kg) | Kp uu at 24 h ([1]; PO 0.3 mg/kg) |
| --- | --- | --- | --- | --- | --- | --- | --- | --- | --- | --- |
| Cc1cc(F)c(Cc2nc(-c3ncc(F)c(O)n3)cn3ccnc23)cc1F [Compound I-14, 5-fluoro-2-(8-(2,5-difluoro-4-methylbenzyl)imidazo[1,2-a]pyrazin-6-yl)pyrimidin-4-ol] | 2 to 3 | > 3 | increased low gamma 0-180 minutes post dose | increased low gamma 0-240 and high gamma 0-180 minutes post dose | decreased delta, theta, alpha and increased low and high gamma | notable decrease in REM and NREM | delayed | increase in Quiet Wake |  |  |
| Oc1nc(-c2cn3ccnc3c(Cc3cc(F)ccc3F)n2)ncc1F [Compound I-20, 5-fluoro-2-(8-(2,5-difluorobenzyl)imidazo[1,2-a]pyrazin-6-yl)pyrimidin-4-ol] |  |  |  |  |  |  |  |  | ≤ 1 | 1 to 2 |
